# Like-named read-outs stand apart in the source and are kept apart here.
# Assays:
# liver stage = conditions: cited from earlier work
# [1] = tested on: NF54-pfs16-LUC-GFP stage IV gametocytes; experiment: Plasmodium falciparum late stage gametocyte (LSG) image-based assay; assay type: cell-based; conditions: for IC50: Plasmodium falciparum
# [2] = tested on: P. falciparum stage V gametocytes; conditions: cited from earlier work; for activity against gametocytes (stage V), PBox supporting information: ref Pbox supporting information; for IC50: stage V gametocytes, read-out: PF stage V GAMS PBox IC50
# P. falciparum ABS = conditions: cited from earlier work; for EC50: ChEMBL Data
# HepG2 = conditions: cited from earlier work
# [3] = tested on: Plasmodium falciparum 3D7 asexual blood stage; experiment: microbe, parasite or virus in culture
# [4] = tested on: T. b. brucei 427 bloodstream trypanosomes; experiment: T. b. brucei resazurin viability assay; assay type: cell-based, Trypanosoma brucei brucei
# HEK293 cells = experiment: HEK293 resazurin cell cytotoxicity assay; conditions: Homo sapiens
# T. brucei rhodesiense = conditions: ref Pbox supporting information; read-out: T .b. rohdensie Pbox IC50; cited from earlier work
# T. brucei brucei = conditions: ref Pbox supporting information; read-out: T.b. brucei Pbox IC50; cited from earlier work
# [5] = tested on: T. cruzi C4 β-galactosidase reporter parasite in MRC 5SV2 host cells; conditions: cited from earlier work
# [6] = tested on: L. donovani MHOM/IN/80/DD8 intracellular amastigotes; experiment: Leishmania donovani intracellular amastigote assay in THP-1 cells; assay type: cell-based; conditions: Leishmania donovani, THP-1; intracellular amastigotes; some values marked *; read-out: L, donovani Discovery Biology IC50
# [7] = tested on: L. infanium (macrophages); parameters: method as in Pbox supporting information; conditions: ref Pbox supporting information; cited from earlier work
# [8] = tested on: T. cruzi intracellular amastigotes; experiment: Intracellular anti-Trypanosoma cruzi image-based assay (amastigotes); assay type: cell-based
# [9] = ref Pathogen Box supporting information
# [10] = Pf 3D7, ref Pathogen Box supporting information, read-out: Pf 3D7 Pbox IC50
# [11] = 3D7, read-out: Pf 3D7 Discovery Biology IC50 µM, P. falciparum 3D7 asexual blood stage, Discovery Biology
# [12] = NF54, read-out: Pf Stage IV GAMS Discovery Biology IC50 µM, stage IV gametocytes, Discovery Biology
# [13] = TCMDC, read-out: TCMDC (ref 93) EX50
# [14] = Trypanosoma brucei; read-out: T b.brucei Discovery Biology IC50
# [15] = HEK293, read-out: HEK % Inhibition 20uM/IC50 Discovery Biology
# [16] = 3D7, read-out: Antiplasmodial IC50 (ABS), PBox compounds, P. falciparum 3D7
# [17] = ref Pbox supporting information, read-out: T. cruzi Pbox IC50
# [18] = HepG2, ref PBox supporting information
# [19] = 3D7, read-out: Pf 3D7 Discovery Biology IC50, P. falciparum 3D7 asexual blood stage
# [20] = HEK293, read-out: HEK % Discovery Biology IC50
# [21] = 7 days exposure, ref PBox supporting information, read-out: T. cruzi IC50 in the PBox supporting information file
Compound,activity in the Discovery Biology stage IV gametocyte (LSG) assay [1],"activity against gametocytes (stage V), PBox supporting information [2]","IC50 [2, 9] [nM]",IC50 (P. falciparum ABS; [10]) [nM],"IC50 [4, 14] [nM]",IC50 (T. brucei rhodesiense) [nM],IC50 (T. brucei brucei) [nM],"IC50 [3, 16] [µM]","IC50 [5, 17] [nM]",IC50 [6] [nM],HepG2 PBox CC20 (HepG2; [18]) [nM],IC50 [7] [nM],further results
Cc1cc(Nc2ccc(C(F)(F)F)cc2)n2ccnc2n1 [MMV011229],did not find this compound to be active,ktba,,,,,,,,,,,"activity against liver stage, PBox supporting information (liver stage; ref Pbox supporting information): ktba; IC50 (P. falciparum ABS; ref Pbox supporting information, read-out: ABS activity, PBox supporting information): 380 nM"
Cc1ccc(NC(=O)c2nc[nH]c2C(=O)Nc2nc3ccccc3[nH]2)c(C)c1 [MMV011903],,,> 8300,360,,,,,,,,,"IC50 (liver stage; liver stage, ref Pathogen Box supporting information, read-out: LIVER STAGE Pbox IC50): > 10000 nM; EC50 (P. falciparum ABS; NITD, read-out: NITD (ref 94) EC50): 730 nM; CC50 (HepG2; read-out: HepG2 PBox CC50 µM, HepG2 CC50, ref Pathogen Box supporting information): > 10 µM"
COc1cccc(CC(=O)N2CCC(n3c(C)nc4ccc(F)cc43)CC2)c1 [MMV020081],demonstrate activity,demonstrate activity,310,240,,,,,,,,,"IC50 [3, 11]: 0.21 µM; IC50 [1, 12]: 0.68 µM; EC50 (P. falciparum ABS; [13]): 910 nM"
Nc1nccc2ccc(-c3ccc4nccn4c3)cc12 [MMV023233],demonstrate activity,demonstrate activity,400,160,3290,,,,,,,,"IC50 [3, 11]: 0.11 µM; inhibition at 20 µM (HEK293 cells; [15]): 74%; IC50 [1, 12]: 3.08 µM; EC50 (P. falciparum ABS; [13]): 100 nM"
Cc1cc(C)nc(-n2nc(C)cc2Nc2ccccc2)n1 [MMV062221],demonstrate activity,demonstrate activity,,,,,,,,,,,"IC50 (HEK293 cells; HEK293, read-out: HEK % Inhibition 20uM/IC50 Discovery Biology (IA)): > 20000 nM; IC50 ([1]; NF54, read-out: Pf Stage IV GAMS Discovery Biology IC50 µM, stage IV gametocytes): 0.57 µM; IC50 ([2]; ref PBox supporting information): 220 nM; IC50 (P. falciparum ABS; P. falciparum 3D7, ref PBox supporting information, read-out: Pf 3D7 Pbox IC50): > 2000 nM"
O=C(Nc1ccc2c(c1)B(O)OC2)c1ccccc1C(F)(F)F [MMV652003],,,,,110,230,150,0.92,270,1250,400,1410,inhibition at 20 µM (HEK293 cells; [15]): 78%
CNC(=O)c1nn(C)c2c1C(C)(C)Cc1cnc(Nc3ccc(N4CCN(C)CC4)cc3)nc1-2 [MMV676602],,,,,170,< 130,< 130,,1050,1430,,850,"IC50 [3, 19]: 3.17 µM; IC50 (HEK293 cells; [20]): 1300 nM; HepG2 PBox CC20 (HepG2): <260 nM"
N=C(N)Nc1ccc(-c2ccc(-c3ccc(NC(=N)N)cc3Cl)o2)c(Cl)c1 [MMV688179],,,,,5680,230,1030,0.59,290,,6800,1010,"IC50 (HEK293 cells; [15]): > 20000 nM; activity against T. cruzi in the Discovery Biology assay [8]: lack of activity; activity against T. cruzi at 8 μM in the Discovery Biology assay [8]: no activity; IC50 [5, 21]: < 1000 nM; IC50 ([1]; NF54, read-out: Pf Stage IV GAMS Discovery Biology IC50, stage IV gametocytes): 4.1 µM"
Cc1nn(C)c(C)c1NS(=O)(=O)c1c(Cl)cc(-c2ccnc(N3CCNCC3)c2)cc1Cl [MMV688180],,,,,,< 130,< 130,,850,,45.4,1010,"IC50 ([4]; Trypanosoma brucei, read-out: T b.brucei Discovery Biology IC50): 10 nM; IC50 [3, 19]: 0.63 µM; IC50 (HEK293 cells; [20]): 660 nM; IC50 ([8]; Trypanosoma cruzi, read-out: T cruzi Discovery Biology IC50): 2910 nM"
N=C(N)Nc1ccc(-c2ccc(-c3ccc(NC(=N)N)c(Cl)c3)o2)cc1Cl [MMV688271],,,,,520,200,600,1.21,660,3310,13500,10200,"IC50 (HEK293 cells; [15]): > 20000 nM; activity against T. cruzi in the Discovery Biology assay [8]: lack of activity; activity against T. cruzi at 8 μM in the Discovery Biology assay [8]: no activity; IC50 [5, 21]: < 1000 nM"

# From publication PMC5571359, “Screening the Medicines for Malaria Venture Pathogen Box across Multiple Pathogens Reclassifies Starting Points for Open-Source Drug Discovery” (Antimicrobial Agents and Chemotherapy, 2017)
